Test results published in patent US9884806B2, “Cyclic vinylogous amides as bromodomain inhibitors” (ICAHN SCHOOL OF MEDICINE AT MOUNT SINAI, priority 2013, dated 2018).

Tests used:
[1] = target: T1, BRD4_2 (Homo sapiens, UniProt O60885); assay: Fluorescence anisotropy binding assay (competition with FITC-labeled MS417 probe), BRD4_2; conditions: FITC-MS417 probe 80 nM, PBS pH 7.4, 1 hour, 25° C.
T1 construct: contains two tandem bromodomains (BrD1 and BrD2)

[2] = target: T2, first bromodomain (BrD1) of human BRD4 (Homo sapiens, UniProt O60885); assay: Fluorescence anisotropy binding assay (competition with FITC-labeled MS417 probe); conditions: FITC-MS417 probe 80 nM, PBS pH 7.4, 1 hour, 25° C., read-out: BRD4_1 IC50
T2 construct: the first bromodomain (BrD1) of human BRD4; poly-His (cleaved yes); made in house
Outline: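 Competitive fluorescence anisotropy in PBS pH 7.4: 80 nM FITC-MS417 probe, 0.25 to 1 μM tag-cleaved BrD1, titrated unlabeled ligand, 1 hour at 25° C. IC50 values were fitted and converted to Ki using a corrected Cheng-Prusoff equation assuming one-site competition.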

Structure (SMILES)	IC50 [1]	IC50 [2]	melting point
COC(=O)c1ccc(NC2=C(C)C(=O)CC2)cc1OC [Example 01-13, methyl 2-methoxy-4-((2-methyl-3-oxocyclopent-1-en-1-yl)amino)benzoate]	1 to 10 µM	1 to 10 µM	193 to 196 °C
CC1=C(Nc2ccc(NS(=O)(=O)C3CCCCC3)cc2Cl)CCCC1=O [Example 05-69, N-(3-chloro-4-((2-methyl-3-oxocyclohex-1-en-1-yl)amino)phenyl)-cyclohexanesulfonamide]	1 to 10 µM	< 1 µM	230 to 232 °C
CC1=C(Nc2ccc(Nc3ccccc3C)cc2Cl)CCCC1=O [Example 05-82, 3-((2-chloro-4-(o-tolylamino)phenyl)amino)-2-methylcyclohex-2-enone]	> 10 µM	< 1 µM	68 to 70 °C
CC1=C(Nc2cnc3ccccc3c2)CCCC1=O [Example 01-59, 2-methyl-3-[(quinolin-3-yl)amino]cyclohex-2-en-1-one]	> 10 µM	1 to 10 µM	172 to 175 °C
CC1=C(Nc2ccc(C(=O)O)c(Cl)c2)CCC1=O [Example 01-10, 2-chloro-4((2-methyl-3-oxocyclopent-1-en-1-yl)amino)benzoic acid]	> 10 µM	> 10 µM	239 to 241 °C
CC1=C(Nc2cc(NCc3cccc(F)c3C)ccc2Cl)CCCC1=O [Example 05-75, 3-((2-chloro-5-((3-fluoro-2-methylbenzyl)amino)phenyl)amino)-2-methylcyclohex-2-enone]	1 to 10 µM	< 1 µM	160 to 162 °C
CC1=C(Nc2cc(NC(=O)C3CCCCC3)ccc2Cl)CCC1=O [Example 05-39, N-(4-chloro-3-[(2-methyl-3-oxocyclopent-1-en-1-yl)amino]phenyl)-cyclohexanecarboxamide]	1 to 10 µM	< 1 µM	240 to 242 °C
CC1=C(Nc2cc(NS(=O)(=O)N3CCOCC3)ccc2Cl)CCC1=O [Example 05-62, N-(4-chloro-3-((2-methyl-3-oxocyclopent-1-en-1-yl)amino)phenyl)-morpholine-4-sulfonamide]	1 to 10 µM	< 1 µM	60 to 67 °C
CC1=C(Nc2cccc(Cl)c2C(=O)O)CCC1=O [Example 01-23, 2-chloro-6((2-methyl-3-oxocyclopent-1-en-1-yl)amino)benzoic acid]	> 10 µM	> 10 µM	277 to 280 °C
CC1=C(Nc2cccc3ccccc23)CCC1=O [Example 01-26, 2-methyl-3-(naphthalen-1-ylamino)cyclopent-2-enone]	1 to 10 µM	1 to 10 µM	166 to 168 °C
CC1=C(Nc2cc(C(=O)O)ccc2Br)CCCC1=O [Example 01-48, 4-bromo-3((2-methyl-3-oxocyclohex-1-en-1-yl)amino)benzoic acid]	> 10 µM	1 to 10 µM	265 to 267 °C
CC1=C(Nc2ccc(NCc3ccccc3C)cc2Cl)CCCC1=O [Example 05-76, 3-((2-chloro-4-((2-methylbenzyl)amino)phenyl)amino)-2-methylcyclohex-2-enone]	> 10 µM	1 to 10 µM	220 to 221 °C
CC1=C(Nc2cc(NC(=O)c3cccc4ccccc34)ccc2Cl)CCC1=O [Example 05-40, N-(4-chloro-3-[(2-methyl-3-oxocyclopent-1-en-1-yl)amino]phenyl)-naphthalene-1-carboxamide]	< 1 µM	< 1 µM	243 to 245 °C
CC1=C(Nc2cc(NC(=O)c3ccccc3C)ccc2Cl)CCCC1=O [Example 05-44, N-(4-chloro-3-((2-methyl-3-oxocyclohex-1-en-1-yl)amino)phenyl)-2-methylbenzamide]	1 to 10 µM	< 1 µM	199 to 201 °C
CC1=C(Nc2cc(NCc3ccccc3C)ccc2Cl)CCCC1=O [Example 05-72, 3-((2-chloro-5-((2-methylbenzyl)amino)phenyl)amino)-2-methylcyclohex-2-enone]	< 1 µM	< 1 µM	158 to 160 °C
CC1=C(Nc2ccc(NCCc3ccccc3C)cc2Cl)CCCC1=O [Example 05-77, 3-((2-chloro-4-((2-methylphenethyl)amino)phenyl)amino)-2-methyl-cyclohex-2-enone]	1 to 10 µM	1 to 10 µM	160 to 162 °C
CC1=C(Nc2ccc3cnccc3c2)CCCC1=O [Example 01-55, 3-[(isoquinolin-6-yl)amino]-2-methylcyclohex-2-en-1-one]	1 to 10 µM	1 to 10 µM	163 to 165 °C

Structure (SMILES)	IC50 [1]	IC50 [2]	melting point
CC1=C(Nc2cc(NS(C)(=O)=O)ccc2Cl)CCC1=O [Example 05-53, N-(4-chloro-3-((2-methyl-3-oxocyclopent-1-en-1-yl)amino)-phenyl)-methanesulfonamide]	1 to 10 µM	1 to 10 µM	213 to 215 °C
CC1=C(Nc2ccc(NC(=O)/C=C\C(=O)O)cc2Cl)CCCC1=O [Example 05-84, (Z)-4-((3-chloro-4-((2-methyl-3-oxocyclohex-1-en-1-yl)amino)phenyl)-amino)-4-oxobut-2-enoic acid]	> 10 µM	1 to 10 µM	200 to 202 °C
CC1=C(Nc2cc(C(=O)O)c3ccccc3c2)CCCC1=O [Example 01-52, 3-[(2-methyl-3-oxocyclohex-1-en-1-yl)amino]naphthalene-1-carboxylic acid]	1 to 10 µM	1 to 10 µM	270 to 272 °C
CC1=C(Nc2cc(NC(=O)c3cccc4ccccc34)ccc2Cl)CCCC1=O [Example 05-46, N-(4-chloro-3-((2-methyl-3-oxocyclohex-1-en-1-yl)amino)phenyl)-1-naphthamide]	1 to 10 µM	< 1 µM	245 to 247 °C
CC1=C(Nc2cccc(NC(=O)c3ccccc3C)c2Cl)CCC1=O [Example 05-42, N-(2-chloro-3-((2-methyl-3-oxocyclopent-1-en-1-yl)amino)phenyl)-2-methylbenzamide]	1 to 10 µM	< 1 µM	118 to 120 °C
CC1=C(Nc2ccncc2Cl)CCCC1=O [Example 01-51, 3-[(3-chloropyridin-4-yl)amino]-2-methylcyclohex-2-en-1-one]	> 10 µM	1 to 10 µM	135 to 138 °C
CC1=C(Nc2ccc(NC(=O)c3ccccc3C)cc2Cl)CCC1=O [Example 05-41, N-(3-chloro-4-((2-methyl-3-oxocyclopent-1-en-1-yl)amino)phenyl)-2-methylbenzamide]	1 to 10 µM	< 1 µM	280 to 283 °C
CC1=C(Nc2ccc3[nH]c(=O)[nH]c3c2)CCCC1=O [Example 01-63, 5-[(2-methyl-3-oxocyclohex-1-en-1-yl)amino]-2,3-dihydro-1H-1,3-benzodiazol-2-one]	1 to 10 µM	1 to 10 µM	233 to 235 °C
CC1=C(Nc2cc(C(=O)O)ccc2Cl)CCC1=O [Example 01-25, 4-chloro-3((2-methyl-3-oxocyclopent-1-en-1-yl)amino)benzoic acid]	> 10 µM	1 to 10 µM	272 to 275 °C
COC(=O)c1cc(Cl)ccc1NC1=C(C)C(=O)CC1 [Example 01-20, methyl 5-chloro-2-((2-methyl-3-oxocyclopent-1-en-1-yl)amino)benzoate]	> 10 µM	> 10 µM	162 to 165 °C
CC1=C(Nc2cccc(NC(=O)C3CCCCC3)c2Cl)CCCC1=O [Example 05-51, N-(2-chloro-3-((2-methyl-3-oxocyclohex-1-en-1-yl)amino)phenyl)-cyclohexanecarboxamide]	> 10 µM	1 to 10 µM	205 to 208 °C
CC1=C(Nc2cc(C(=O)Nc3ccccc3C)c3ccccc3c2)CCCC1=O [Example 04-106, 3-((2-methyl-3-oxocyclohex-1-en-1-yl)amino)-N-(o-tolyl)-1-naphthamide]	1 to 10 µM	< 1 µM	249 to 250 °C (dec.)
CC1=C(Nc2ccc(NC(=O)c3cccc4ccccc34)cc2Cl)CCCC1=O [Example 05-47, N-(3-chloro-4-((2-methyl-3-oxocyclohex-1-en-1-yl)amino)phenyl)-1-naphthamide]	1 to 10 µM	< 1 µM	245 to 247 °C
CC1=C(Nc2ccccc2C(N)=O)CCC1=O [Example 01-18, 2-((2-methyl-3-oxocyclopent-1-en-1-yl)amino)benzamide]	> 10 µM	> 10 µM	235 to 238 °C
CC1=C(Nc2ccc(N)cc2Cl)CCCC1=O [Example 02-12, 3-((4-amino-2-chlorophenyl)amino)-2-methylcyclohex-2-enone]	1 to 10 µM	1 to 10 µM	156 to 158 °C
CC1=C(Nc2cccc(NS(=O)(=O)c3ccccc3C)c2Cl)CCC1=O [Example 05-65, N-(2-chloro-3-((2-methyl-3-oxocyclopent-1-en-1-yl)amino)phenyl)-2-methylbenzenesulfonamide]	1 to 10 µM	< 1 µM	75 to 77 °C
CC1=C(Nc2ccc3ncccc3c2)CCCC1=O [Example 01-54, 2-methyl-3-[(quinolin-6-yl)amino]cyclohex-2-en-1-one]	1 to 10 µM	1 to 10 µM	208 to 210 °C
